# Results taken from PMC8654833 (Scientific Reports, 2021).
# Experiments:
# DAT = target: T1, DAT (Homo sapiens, UniProt Q01959); assay: Radioligand binding competition dose-response (Euroscreen), dopamine transporter
# T1 construct: Euroscreen FAST (contract assay)
# Procedure: (§1) This study included binding assays (87 GPCR targets), measured as % of binding inhibition of a reference radioligand, as well as uptake and enzyme assays (19 targets), the latter measured as % inhibition of control enzyme activity. […] It was performed by radioligand binding competition by Euroscreen (Euroscreen FAST, Belgium). The following nanomolar concentrations were tested in duplicate: 0.001, 0.01, 0.1, 1, 10, 100, 1000, 10,000. Dose–response curves were fitted with the least squares method. IC50 results are shown as pIC50, corresponding to the negative log10 of IC50 in molar.
# 5-HT1B [1] = target: T2, 5-HT1B (Rattus norvegicus, UniProt P28564); assay: Single-concentration radioligand binding screen (Eurofins Cerep), 5-HT1B; details: read-out: %Binding inhibition at 10 µM
# T2 construct: Eurofins Cerep (contract assay)
# T2 sequence (P28564 whole entry): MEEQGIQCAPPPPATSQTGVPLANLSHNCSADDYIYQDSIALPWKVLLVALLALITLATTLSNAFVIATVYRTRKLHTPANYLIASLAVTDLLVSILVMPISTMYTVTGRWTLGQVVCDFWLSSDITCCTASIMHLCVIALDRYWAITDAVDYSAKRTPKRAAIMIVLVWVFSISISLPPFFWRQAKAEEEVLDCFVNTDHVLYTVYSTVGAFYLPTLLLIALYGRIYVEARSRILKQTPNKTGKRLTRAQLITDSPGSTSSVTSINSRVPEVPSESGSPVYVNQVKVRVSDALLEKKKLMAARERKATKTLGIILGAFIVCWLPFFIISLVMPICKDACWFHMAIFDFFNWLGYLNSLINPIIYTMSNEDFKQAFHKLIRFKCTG
# Procedure: as §1
# [2] = system: microglia related genes in the cervical and thoracic spinal cord; assay: RT-qPCR of microglia related genes in spinal cord; assay type: in vivo, Sod1^G86R mice
# Procedure: (§2) We then sought to characterize whether BW modulated microglial physiology and used RT-qPCR to measure microglia related genes in the cervical and thoracic spinal cord of animals treated with either vehicle or 3 mg/kg/d of BW. […] We next wanted to see if these changes in gene expression were accompanied by modification of microglial activation in spinal cord of treated mice. Iba1 + cells were classified in 4 different activation states (resting, activated, phagocytic or dystrophic).
# Total RNA was extracted from the cervical and thoracic spinal cord of end stage mice using TRIzol (Invitrogen). Reverse transcription was performed using 1 μg of RNA and the iScript cDNA synthesis kit (BioRad). IQ SYBR green Supermix (BioRad) was used to perform RT-PCR. Data were normalized with GeNorm software (RRID: SCR_006763)[25]. Three reporter genes were used for normalization: POL2, TBP and Actin. Oligonucleotide primers are provided in Supplementary Table S1.
# [3] = system: microglia and motor neurons in the ventral spinal cord; assay: Iba1 and ChAT immunostaining of lumbar spinal cord; assay type: in vivo; details: Sod1^G86R mice
# Procedure: as §2
# Lumbar spinal cord was dissected and cryopreserved before OCT inclusion. Samples were cut with a cryostat (Leica CM30505) at 20 µm of thickness. Iba1 (1:100, Sigma cat#SAB2702364, RRID: AB_2820253) and ChaT (1:100, Millipore cat#AB144P) immunostainings were performed using DAB peroxidase technique to assess microglial integrity and motor neuron degeneration. Images were acquired using a Leica DM750 microscope at × 10 magnification. Cells were counted in the ventral horn in a standardized zone with n = 4–10 images per animal, and subsequently classified using FIJI software (RRID: SCR_002285)[23],[24].
# 5-HT1B [4] = target: T3, 5-HT1B (Homo sapiens, UniProt P28222); assay: Radioligand binding competition dose-response (Euroscreen), 5-HT1B
# T3 construct: Euroscreen FAST (contract assay)
# T3 sequence (P28222 whole entry, species assumed): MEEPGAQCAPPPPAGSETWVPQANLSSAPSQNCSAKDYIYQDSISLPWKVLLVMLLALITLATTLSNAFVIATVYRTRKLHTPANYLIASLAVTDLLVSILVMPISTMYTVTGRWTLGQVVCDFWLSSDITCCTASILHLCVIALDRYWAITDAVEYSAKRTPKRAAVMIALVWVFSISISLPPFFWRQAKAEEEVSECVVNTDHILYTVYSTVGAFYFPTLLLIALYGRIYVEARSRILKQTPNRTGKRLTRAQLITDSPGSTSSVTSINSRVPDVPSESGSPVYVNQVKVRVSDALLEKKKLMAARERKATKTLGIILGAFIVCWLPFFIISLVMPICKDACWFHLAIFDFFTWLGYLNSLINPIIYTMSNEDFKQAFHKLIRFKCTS
# Procedure: as §1
# T1 sequence (Q01959 whole entry, species assumed): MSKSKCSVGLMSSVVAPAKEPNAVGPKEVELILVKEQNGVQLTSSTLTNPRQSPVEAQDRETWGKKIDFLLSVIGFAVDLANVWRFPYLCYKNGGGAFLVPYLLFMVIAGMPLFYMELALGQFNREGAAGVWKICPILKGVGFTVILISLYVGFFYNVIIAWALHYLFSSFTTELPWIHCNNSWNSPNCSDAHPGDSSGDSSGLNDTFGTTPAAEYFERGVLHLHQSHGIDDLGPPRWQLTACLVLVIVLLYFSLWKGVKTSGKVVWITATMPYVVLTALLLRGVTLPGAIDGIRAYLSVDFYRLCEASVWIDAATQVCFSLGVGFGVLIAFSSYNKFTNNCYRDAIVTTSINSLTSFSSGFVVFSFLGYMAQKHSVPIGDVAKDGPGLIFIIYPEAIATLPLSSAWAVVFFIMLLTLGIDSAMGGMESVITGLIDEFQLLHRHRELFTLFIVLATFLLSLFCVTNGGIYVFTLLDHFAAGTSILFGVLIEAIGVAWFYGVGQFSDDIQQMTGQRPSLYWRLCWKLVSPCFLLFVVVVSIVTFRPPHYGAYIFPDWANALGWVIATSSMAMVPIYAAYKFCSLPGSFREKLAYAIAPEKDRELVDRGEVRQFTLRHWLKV
smiles,measurement,setting,value
"CC(N)Cc1c[nH]c2ccc(OCc3cccs3)cc12 (stereo not shown) [BW, 1-[5-(thiophen-2-ylmethoxy)-1H-indol-3-yl]propan-2-amine]",IC50,DAT,741 nM
same,inhibition at 10 µM,DAT; read-out: %Binding inhibition at 10 µM,73.2%
same,inhibition at 10 µM,5-HT1B [1],92%
same,Hexb upregulation in Sod1^G86R mice,"[2]; 3 mg/kg/d, spinal cord RT-qPCR",partially prevented
same,disease-associated upregulation of Nox2,"[2]; 3 mg/kg/d, spinal cord RT-qPCR",partially prevented
same,disease-associated upregulation of Tyrobp (DAP12),"[2]; 3 mg/kg/d, spinal cord RT-qPCR",partially prevented
same,upregulation of disease-associated microglia marker Apoe,"[2]; 3 mg/kg/d, spinal cord RT-qPCR",blunted the upregulation
same,upregulation of disease-associated microglia marker Cd9,"[2]; 3 mg/kg/d, spinal cord RT-qPCR",blunted the upregulation
same,upregulation of disease-associated microglia marker Cst7,"[2]; 3 mg/kg/d, spinal cord RT-qPCR",blunted the upregulation
same,upregulation of disease-associated microglia marker Lpl,"[2]; 3 mg/kg/d, spinal cord RT-qPCR",blunted the upregulation
same,Tmem119 expression,[2]; Sod1^G86R mice with BW treatment,downregulated
same,"microglial morphology (proportion of resting, activated, phagocytic, dystrophic Iba1+ cells)",[3]; 3 mg/kg/d vs vehicle,No statistically significant difference
same,loss of motor neurons (ChAT positive cells in the ventral spinal cord),[3]; 3 mg/kg/d,did not modify
same,IC50,5-HT1B [4],182 nM
same,%Binding inhibition at 10 µM,"5-HT1B [4]; dose-response study, maximal concentration 10 µM, [3H]5-CT, 10 µM",101.39%
same,inhibition at 10 µM,"5-HT1B [4]; read-out: %Binding inhibition at 10 µM, dose-response study, maximal concentration 10 µM, [3H]5-CT",100%
